Assay results reported in US20170234881A1, “METHODS OF DIAGNOSING AND TREATING CANCER” (INSERM ( INSTITUT NATIONAL DE LA SANTÉ ET DE LA RECHERCHE …, priority 2014, published 2017).

Key:
TS/A tumors = assay: Growth of TS/A tumors implanted s.c. into mice; assay type: in vivo; details: after 13 days, s.c. every day, Tam 56 mg/kg or DDA 20 mg/kg alone
Procedure: FIG. 2. OCDO is a tumor promoter in vitro and in vivo and its inhibition contributes to the anti-tumor effects of Tam and DDA. (A, B) Histograms representing the effect of OCDO or 17β-estrogen (E2) on MCF7 (A) and TS/A (B) cell proliferation after 24 h treatment using a colorimetric immunoassay measuring BrDU incorporation in DNA (C, D) Histogram representing the effect of OCDO on MCF7 (C) and TS/A (D) cell invasion. Data are the mean of three separate experiments (±s.e.m), *P<0.05, **P<0.01, ***P<0.001 (Student's t-test). (E, F) Mice were implanted s.c. with MCF7 (E) or TS/A (F) cells and animals (8 per group) were treated s.c. every day starting on the day of implantation with either the solvent vehicle or OCDO (16 μg/kg for MCF7 or 50 μg/kg for TS/A). Animals were monitored for tumour growth twice a week. The data are representative of three independent experiments. The mean tumor volume±s.e.m is shown, *P<0.05, **P<0.01, ***P<0.001 (analysis of variance (ANOVA), Dunnett's post test). (G) Mean (±s.e.m) of Ki67 positive cell number determined from IHC staining of MCF7 tumor sections from (E), n=8, *P<0.05 (Student's t-test) using HistoQuant, Pannoramic Viewer (3DHistech). (H) Representative Ki67 staining of TS/A tumor sections from (F) showing increased staining in OCDO-treated tumor compared with control-treated tumor. (I, J, K). Murine E0771(I), or human MDA-MB231 (J) or MDA-MB468 (K) cells implanted s.c. into mice (8 per group) and animals were treated s.c. with either the solvent vehicle or OCDO (16 μg/kg for MDA-MB-231 and MDA-MB-468 or 50 μg/kg for E0771). The data are representative of two independent experiments. Statistical analysis was performed as in E and F. (L) Mice were implanted s.c. with TS/A cells and animals (8 per group) were treated s.c. every day with either the solvent vehicle, OCDO (50 μg/kg), Tam (56 mg/kg), DDA (20 mg/kg) or the combination of Tam (56 mg/kg) +OCDO (50 μg/kg) or DDA (20 mg/kg)+OCDO (50 μg/kg). The data are representative of three independent experiments. Statistical analysis was performed as in E and F.
Exponentially growing MCF7, ShMCF7, E0771, MDA-MB231, MDA-MB468 and TS/A cells were collected, washed twice in PBS and resuspended in PBS. TS/A and E9771 tumours were prepared by subcutaneous transplantation of 35×10^3 cells or 3×10^5 cells respectively in 100 μl PBS into the flank of BALB/c or C57B16 mice. For other tumors, 5 to 10×10^6 cells in 200 μl PBS/matrigel (1/1) were injected into the flank of NMRI nude mice. Animals were treated as indicated in the legends. Animals were examined daily, and body weights were measured twice per week. In all the experiments, the tumor volume was determined by direct measurement with a caliper and was calculated using the formula (width^2×length)/2. Tumors were either frozen in liquid nitrogen or fixed in 10% neutral-buffered formalin and embedded in paraffin for immunohistochemical analysis. Paraffin sections were stained with haematoxylin and eosin for histomorphological analyses. Immunohistochemical staining was done on paraffin-embedded tissue sections, using a specific Ki67 antibody (Dako).
We then assayed the anti-growth effect of Tam or DDA against TS/A tumors in the absence and presence of OCDO. As above, TS/A tumors implanted into immunocompetent mice were treated s.c. every day either with either the solvent vehicle (control), OCDO (50 μg/kg), Tam (56 mg/kg), DDA (20 mg/kg) or the combination of Tam (56 mg/kg)+OCDO (50 μg/kg) or DDA (20 mg/kg) +OCDO (50 μg/kg).

shHSD2 MCF7 cells = assay: Proliferation of shHSD2 MCF7 cells (BrDU); assay type: cell-based, human; details: sh11HSD2 MCF7 cells, 24 h; OCDO 5 μM; cortisone increasing concentrations
Procedure: FIG. 7. Knock-down of 11βHSD2 decreases cell proliferation, invasion and survival in MCF7 cells as well as tumor growth and OCDO reverses these effects. shC or shHSD2 MCF7 cells were analyzed as followed: (A) The proliferation of sh-C or shHSD2 cells treated or not with OCDO 5 μM 24 h was measured using quantification of DNA BrDU incorporation as described in FIG. 2A. (B) The proliferation of sh-C or shHSD2 cells treated or not with increasing concentration of cortisone for 24 h was measured as in (A). (C) The invasiveness of sh-C or shHSD2 cells treated or not with OCDO 5 μM for 72 h was assayed using matrigel-coated filters. (D) the formation of colony by sh-C or shHSD2 cells treated or not with OCDO 1 μM was quantified as described in FIG. 6F. […] Animals were monitored for tumor growth twice a week. […] (F) Mean (±s.e.m) of Ki67 positive cell number determined from IHC staining of shC or shHSD2 MCF7 tumor sections from (E), n=8, *P<0.05 (Student's t-test) using HistoQuant, Pannoramic Viewer (3DHistech).
MCF7 or HEK293T cells (5×10^6 cells) were transfected with 5 μg of the indicated plasmid using the NEON Transfection System and according to the manufacturer's recommendations. […] Several clones were analyzed by immunoblot analysis and real time RT-qPCR for the knock down of the expression of the protein of interest. […]

| Compound | inhibition of TS/A tumor growth compared with the control group (TS/A tumors) | effect on the inhibition of cell proliferation induced by 11βHSD2 knock-down (shHSD2 MCF7 cells) |
| --- | --- | --- |
| CC(C)CCCC(C)[C@H]1CCC2C3C[C@@H](NCCc4cnc[nH]4)[C@@]4(O)C[C@@H](O)CC[C@]4(C)C3CC[C@@]21C (stereo partly drawn) [DDA, 5-hydroxy-6-[2-(1H-imidazol-4-yl)ethylamino]cholestan-3-ol, reference compound] | 33% |  |
| CC/C(=C(\c1ccccc1)c1ccc(OCCN(C)C)cc1)c1ccccc1 [Tam, (Z)-2-[4-(1,2-diphenylbut-1-enyl)phenoxy]-N,N-dimethylethanamine, reference compound] | 31% |  |
| C[C@]12CCC(=O)C=C1CC[C@@H]1[C@@H]2C(=O)C[C@@]2(C)[C@H]1CC[C@]2(O)C(=O)CO [cortisone, reference compound] |  | did not |
